Data set [1] is described as follows: Microsomal stability, mouse liver microsomes. The data set is classed as in vitro ADME. Details: microsomal CLint / half-life: dose or concentration left out as unconfirmed. To be noted: for half-life: mouse, liver microsomes, pH 7.4, mouse liver microsomes, read-out: t1/2 (min) (Mean ± S.D.); for CLint scaled: read-out: CLint (ml/min/kg) (Mean ± S.D.). As to the method: (§1) AM9338 (50 µM) was incubated at 37 °C with mouse, rat or human microsomes (0.5 mg/ml) in 50 mM potassium phosphate buffer, pH 7.4. Samples were taken immediately after the addition of NADPH (final concentration 1 mM) and again after 30 and 60 min of incubation; the reaction was terminated through protein precipitation with ice cold methanol followed by centrifugation at 4000 g for 10 min. The resulting supernatant was analyzed using LC-MS/MS.
(§2) Chromatographic separation of AM9338 and its metabolites was achieved using a Phenomenex Kinetex F5 column (4.6 × 150 mm, 100 Å pore size, 2.6 μm particle size) on a Thermo Accela HPLC (Thermo, San Jose, CA, USA) coupled to an API-4000 Q-Trap (AB Sciex, Concord, Ontario, Canada). Samples were eluted with mobile phases consisting of 0.1 % formic acid in acetonitrile (A) and 0.1 % formic acid in HPLC grade water (B) starting at 10% A for 2.6 min, ramping to 90%A over the next 9.4 min, and holding at 90%A for 2.8 min before returning to initial conditions for a total run time of 18.5 min; the flow rate was 0.8 ml/min and the autosampler and column oven were set to 4°C and 35°C, respectively. The mass spectrometer was operated in electrospray ionization (ESI) positive ion mode with the following conditions: ion spray voltage = 5,500 V; heater temperature = 550 °C; curtain gas = 20 psi; Q2 collision gas = set as high; source gas 1 (GS1) = 50 psi; source gas 2 (GS2) = 55 psi. High purity nitrogen was used as a source and collision gas and the compounds were detected in the multiple reaction monitoring (MRM) mode.
(§3) The susceptibility of AM9338 to CYP enzymes or hydrolytic enzymes was tested at 37°C in human, mouse and rat liver microsomes, in the presence or absence of NADPH. […] The disappearance of AM9338 in microsomes followed a first-order elimination kinetics with low elimination half-life (t1/2 < 4 min) and high intrinsic microsomal clearance of microsomal protein across all three species as shown in Table 1 .

Data set [2] in a line: Microsomal stability, rat liver microsomes. Format: in vitro ADME. The following applies: for CLint scaled: read-out: CLint (ml/min/kg) (Mean ± S.D.); for half-life: rat, liver microsomes, pH 7.4, rat liver microsomes, read-out: t1/2 (min) (Mean ± S.D.). On the set-up: microsomal CLint / half-life: dose or concentration left out as unconfirmed. The method, then: as §1, §2, §3
(In general: Liver microsomes are vesicles of endoplasmic reticulum, rich in cytochrome P450 enzymes.)

A short description of data set [3]: Microsomal stability, human liver microsomes. The data set is classed as in vitro ADME. On the set-up: half-life / microsomal CLint: dose or concentration left out as unconfirmed. The following applies: for half-life: human, liver microsomes, pH 7.4, human liver microsomes, read-out: t1/2 (min) (Mean ± S.D.); for CLint scaled: read-out: CLint (ml/min/kg) (Mean ± S.D.). The method, then: as §1, §2, §3

Data set [4] has as its target CYP3A4 (Homo sapiens, UniProt P08684). Briefly: CYP phenotyping using CYP specific chemical inhibitors. The data set is classed as in vitro ADME. The following applies: preliminary.
In data set [5] the target is hCB2 (Homo sapiens, UniProt P34972). Briefly: CB2 receptor binding affinity (hCB2). The following applies: stated in introduction, no method or reference given.
Sequence of hCB2 (P34972 whole entry): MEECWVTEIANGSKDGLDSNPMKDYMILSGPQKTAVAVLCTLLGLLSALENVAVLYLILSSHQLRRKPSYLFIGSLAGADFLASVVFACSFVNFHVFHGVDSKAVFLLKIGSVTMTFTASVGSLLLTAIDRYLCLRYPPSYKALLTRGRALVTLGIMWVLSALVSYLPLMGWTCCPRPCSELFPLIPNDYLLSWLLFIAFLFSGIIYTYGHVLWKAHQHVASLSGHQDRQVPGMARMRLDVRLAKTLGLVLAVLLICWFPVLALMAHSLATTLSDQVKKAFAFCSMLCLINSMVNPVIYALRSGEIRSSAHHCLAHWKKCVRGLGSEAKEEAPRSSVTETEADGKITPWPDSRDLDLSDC
Data set [6] deals with mCB2 (Mus musculus, UniProt P47936). Briefly: CB2 receptor binding affinity (mCB2). The following applies: stated in introduction, no method or reference given.
Sequence of mCB2 (P47936 whole entry): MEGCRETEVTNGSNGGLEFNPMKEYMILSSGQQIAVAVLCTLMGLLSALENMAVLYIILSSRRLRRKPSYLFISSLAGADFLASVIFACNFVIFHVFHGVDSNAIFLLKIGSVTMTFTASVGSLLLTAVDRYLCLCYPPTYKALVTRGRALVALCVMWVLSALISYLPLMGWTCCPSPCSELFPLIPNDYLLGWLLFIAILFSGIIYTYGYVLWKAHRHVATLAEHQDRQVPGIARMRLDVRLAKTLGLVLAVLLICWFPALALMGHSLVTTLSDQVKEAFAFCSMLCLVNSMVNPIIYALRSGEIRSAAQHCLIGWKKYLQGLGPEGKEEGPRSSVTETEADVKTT
Data set [7] is described as follows: Non-compartmental pharmacokinetics in mice after i.v. and oral dosing. Format: in vivo. The following applies: for bioavailability: oral 8 mg/kg vs I.V. 2 mg/kg. As to the method: The non-compartmental pharmacokinetic parameters following intravenous (2 mg/kg, i.v.) and oral (8 mg/kg, p.o.) dosing are presented in Table 2 .
Data set [8] can be described thus: Metabolite profile after incubation with pooled mouse liver microsomes (LC-UV/LC-MS). Format: in vitro ADME. The following applies: NADPH, 37°C, 60 min. As to the method:
as §1
Reconstituted extracts from the microsomal incubations were injected on a Supelco Discovery column C18, 250 × 4.6 mm column (Millipore-Sigma, St Louis, MO) on Thermo Accela HPLC system (Thermo Fisher Scientific, Austin, TX). The column temperature was maintained at 35°C, the flow rate was 0.8 ml/min, the injection volume was 20 µl and UV detector was set at 300 nm, maximal absorbance wavelength for AM9338. […]
The metabolites M3 (trihydroxy), M4 (trihydroxy) and M8 (Ketone-hydroxyl) appear to be the metabolic end products of AM9338. […] The estimated relative percentage of each metabolite was calculated using the UV peak areas at the end of the incubation: M1 (49%), M2 (37%), M3 (1%), M4 (5%), M5 (4%), M7 (3%), M8 (1%), and M9 (2%). […] Human (HLM), Mouse (MLM) and rat liver microsomes (RLM) generated the very similar metabolite profile, with M1 and M2 being the major metabolic products, appearing in similar order of formation and relative quantities. […]

[9] abbreviates: mouse, iv, I.V. 2 mg/kg, plasma.
The mark [10] stands for this setting: mouse, plasma, po, 8 mg/kg, oral 8 mg/kg.

Where two headings read alike, the source gives them in different places. Some results are limits rather than exact numbers.

Sequence of CYP3A4 (P08684 whole entry): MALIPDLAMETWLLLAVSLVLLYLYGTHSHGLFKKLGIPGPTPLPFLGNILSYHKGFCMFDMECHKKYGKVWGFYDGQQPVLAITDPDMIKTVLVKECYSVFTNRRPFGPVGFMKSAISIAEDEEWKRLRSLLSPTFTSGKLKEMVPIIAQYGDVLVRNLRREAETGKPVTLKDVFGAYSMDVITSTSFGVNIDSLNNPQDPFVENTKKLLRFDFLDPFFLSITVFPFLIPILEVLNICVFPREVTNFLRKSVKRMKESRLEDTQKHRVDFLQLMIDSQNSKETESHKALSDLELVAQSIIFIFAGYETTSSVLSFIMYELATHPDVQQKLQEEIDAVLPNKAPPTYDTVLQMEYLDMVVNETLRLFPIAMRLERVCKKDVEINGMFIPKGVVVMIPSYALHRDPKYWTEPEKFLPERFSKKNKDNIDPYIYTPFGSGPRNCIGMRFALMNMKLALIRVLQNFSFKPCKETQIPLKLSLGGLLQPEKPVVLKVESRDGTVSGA

For `O=C(NC12CC3CC(C1)C(O)C(C3)C2)c1nn(CCCn2ccnn2)c2ccccc12` (stereo not shown) [M1], the half-life turned out to be 2.02 ± 0.11 min in data set [1] (37°C, presence of NADPH); 4.41 ± 0.31 min in data set [2] (37°C, presence of NADPH); 13.1 ± 2.48 min in data set [3] (37°C, presence of NADPH). The CLint scaled in data set [1] (pH 7.4, mouse liver microsomes) came to 2730 ± 223 mL/min/kg; in data set [2] (pH 7.4, rat liver microsomes), 565 ± 4.4 mL/min/kg; in data set [3] (pH 7.4, human liver microsomes), 121 ± 20 mL/min/kg.

Consider `O=C(NC12CC3CC(CC(C3)C1)C2)c1nn(CCCn2ccnn2)c2ccccc12` [AM9338, 1-(3-(1H-1,2,3-triazol-1-yl)propyl)-N-(adamantan-1-yl)-1H-indazole-3-carboxamide], for which the “Major CYP isoform responsible for the adamantyl oxidations” value in data set [4] is “CYP3A4”. The results for the inhibition constant (Ki) in data set [5] and in data set [6] were 3 nM and 2.3 nM, respectively. The “Stability in absence of NADPH” value in data set [1] (mouse microsomes, 37°C, no NADPH, tested up to 2 h) was “stable”; in data set [2] (rat microsomes, 37°C, no NADPH, tested up to 2 h), “stable”; in data set [3] (human microsomes, 37°C, no NADPH, tested up to 2 h), “stable”. Further, the microsomal CLint is 2950 ± 282 µL/min/mg in data set [1] (pH 7.4, mouse liver microsomes, presence of NADPH, read-out: CLint (µl/min/mg) (Mean ± S.D.)); 830 ± 136 µL/min/mg in data set [2] (pH 7.4, rat liver microsomes, presence of NADPH, read-out: CLint (µl/min/mg) (Mean ± S.D.)); 420 ± 93 µL/min/mg in data set [3] (pH 7.4, human liver microsomes, presence of NADPH, read-out: CLint (µl/min/mg) (Mean ± S.D.)). Besides, the “t1/2 (min) (Mean ± S.D.)” value in data set [3] (human liver microsomes, 37°C, presence of NADPH) is given as 3.3 ± 0.6 min. Further, the half-life in data set [3] (37°C, presence of NADPH) is less than 4 min; in data set [7] (mouse, plasma, iv, 2 mg/kg, I.V. 2 mg/kg, terminal half-life), 16 min; in data set [7] (setting [10]), 113 min. Moreover, the “Systemic plasma clearance as share of hepatic blood flow” value in data set [7] (I.V. 2 mg/kg) is 85 % of hepatic blood flow. This compound registered a t1/2 in data set [7] (I.V. 2 mg/kg, terminal half-life, 2 mg/kg) of 16.1 min. Further, the AUC in data set [7] (setting [9]) is 438 ng·h/mL; in data set [7] (mouse, oral 8 mg/kg, plasma) it was 267 ng·h/mL. In data set [7] (setting [9]), this compound had a C0 of 2110 ng/mL. Further, the clearance in data set [7] (setting [9]) is 75.9 mL/min/kg. Moreover, the Vd in data set [7] (mouse, plasma, iv, I.V. 2 mg/kg, read-out: Vd) was 1.76 L/kg; in data set [7] (oral 8 mg/kg), 79.9 L/kg. The Tmax in data set [7] (mouse, plasma, oral 8 mg/kg) was 60 min. Further, the bioavailability in data set [7] (mouse, plasma, oral, 8 mg/kg, read-out: Bioavailability) is approximately 15%; in data set [7], 15.5%. In addition, the Cmax in data set [7] (setting [10]) came to 240 ng/mL. In data set [7] (oral 8 mg/kg), the CL turned out to be 489 mL/min/kg. The “Cmax (Oral)” value in data set [7] (oral 8 mg/kg, plasma, 8 mg/kg) turned out to be 239 ± 230 ng/mL. Moreover, in data set [8], the “Extent of metabolism of parent” value is “almost completely metabolized”.

Regarding `O=C(NC12CC3CC(C1)C(O)C(C2)C3O)c1nn(CCCn2ccnn2)c2ccccc12` (stereo not shown) [M2], the half-life turned out to be 10.5 ± 0.64 min in data set [1] (37°C, presence of NADPH); 26.8 ± 6.6 min in data set [2] (37°C, presence of NADPH); 30.8 ± 6.7 min in data set [3] (37°C, presence of NADPH). Also, the CLint scaled in data set [1] (pH 7.4, mouse liver microsomes) is 520 ± 54 mL/min/kg; in data set [2] (pH 7.4, rat liver microsomes), 93 ± 10 mL/min/kg; in data set [3] (pH 7.4, human liver microsomes), 54 ± 4 mL/min/kg.

As usually defined, the Ki is a dissociation constant, usually derived from enzyme kinetics or from competition with a known ligand. The AUC is the area under the concentration-time curve, a measure of exposure. Usually Tmax stands for the time at which the peak concentration occurs. In general, bioavailability refers to the share of a dose that reaches the circulation, judged against a reference dose that is usually intravenous. As a reminder, the Cmax is the highest concentration seen after dosing.

The record behind these values is article PMC7556269, “Metabolic Profiling of a CB2 Agonist, AM9338, Using LC-MS and Microcoil-NMR: Identification of a Novel Dihydroxy Adamantyl Metabolite” (Frontiers in Pharmacology, 2020).
